From patent US20040219189A1 (priority 2001, published 2004)

Key:
kainate receptors = details: Narita et al. 1993; cited from earlier work
[1] = tested on: ventromedial nucleus of hypothalamus (VMH) of rat; details: VMH stimulated by water absorbent polymers, Yokawa et al. 1990; cited from earlier work
Arbor Acres broilers = experiment: Fattening of broilers with feed containing GABA (day 21 to day 41 after birth); assay type: in vivo; details: for increase in the body weight per 1 kg of feed during day 21 to day 41 after birth: compared to 0% group (p<0.05), FIG. 2; for increase in the body weight from day 21 to day 41 after birth: FIG. 1

Structure (SMILES): O=C1N=c2cc([N+](=O)[O-])c([N+](=O)[O-])cc2=NC1=O [DNQX, 6,7-dinitroquinoxaline-2,3-dione]
- inhibition of kainate-induced running activity in rat (kainate receptors): inhibited

Structure (SMILES): NCCCC(=O)O [GABA, γ-aminobutyric acid]
- induction of rat running activity caused by polymers [1]: inhibited
- increase in the body weight per 1 kg of feed during day 21 to day 41 after birth (Arbor Acres broilers; 0.5% GABA additive rate): significant increase
- increase in the body weight from day 21 to day 41 after birth (Arbor Acres broilers; 0.5% additive rate of GABA in feed): tendency of increase was also observed at 0.5% but the significant difference was not clearly observed
- increase in the body weight per 1 kg of feed during day 21 to day 41 after birth (Arbor Acres broilers; 1% GABA additive rate): significant increase
- increase in the body weight from day 21 to day 41 after birth (Arbor Acres broilers; 1% additive rate of GABA in feed): maximum increase
- increase in the body weight per 1 kg of feed during day 21 to day 41 after birth (Arbor Acres broilers; 3% GABA additive rate): significant increase

Structure (SMILES): C=C(C)[C@H]1CN[C@H](C(=O)O)[C@H]1CC(=O)O [kainate]
- running activity in rat (kainate receptors): induced
